Here are results for 21 molecules from patent US20140135270A1, “MACROCYCLIC COMPOUNDS FOR INHIBITION OF INHIBITORS OF APOPTOSIS” (Ensemble Therapeutics Corp., priority 2012, published 2014).

One assay addresses T1, His-BIR3 (241-356, XIAP) (Homo sapiens, UniProt P98170).
T1 construct: additions of His-BIR3 (241-356, XIAP), fluorescein labeled SMAC peptide
In words: XIAP-BIR3/SMAC Homogeneous Time Resolved Fluorescence (HTRF) Assay. It counts as binding. The settings on record: fluorescein labeled SMAC peptide. (In general: In TR-FRET formats the signal depends on donor and acceptor labels being close together.)

The target in assay [1] is T2, His-BIR2-3 (125-356, C202A/C213G, XIAP) (Homo sapiens, UniProt P98170, C202A/C213G).
T2 construct: additions of His-BIR2-3 (125-356, C202A/C213G, XIAP), fluorescein labeled dimeric SMAC peptide
T2 sequence (P98170 125-356 C202A/C213G): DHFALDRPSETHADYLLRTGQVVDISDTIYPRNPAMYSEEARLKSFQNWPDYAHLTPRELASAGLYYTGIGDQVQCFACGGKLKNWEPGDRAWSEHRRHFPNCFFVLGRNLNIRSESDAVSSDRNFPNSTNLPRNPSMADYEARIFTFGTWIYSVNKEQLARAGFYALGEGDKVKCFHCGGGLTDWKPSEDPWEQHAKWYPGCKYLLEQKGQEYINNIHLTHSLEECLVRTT
In words: XIAP-BIR2-3 Dimeric SMAC Peptide Homogeneous Time Resolved Fluorescence (HTRF) Assay. The class given is binding. The settings on record: fluorescein labeled dimeric SMAC peptide.

T1 sequence (P98170 241-356): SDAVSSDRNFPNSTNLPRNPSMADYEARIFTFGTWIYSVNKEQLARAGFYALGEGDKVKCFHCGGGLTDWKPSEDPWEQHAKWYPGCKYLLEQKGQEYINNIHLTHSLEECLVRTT

In general, IC50 refers to the concentration that inhibits the measured activity by half. A higher IC50 goes with weaker potency. `CN[C@@H](C)C(=O)N[C@H](C(=O)N1C[C@@H]2C[C@H]1C(=O)N[C@@H](Cc1ccc3ccccc3c1)C(=O)N[C@H](C(=O)O)Cc1ccc(cc1)C(=O)N[C@H]1C[C@@H](C(=O)N[C@@H](Cc3ccc4ccccc4c3)C(=O)N[C@H](C(=O)O)Cc3ccc(cc3)OC/C=C/CO2)N(C(=O)[C@@H](NC(=O)[C@H](C)NC)C(C)(C)C)C1)C(C)C` [Example 75]: the 50% inhibitory concentration (IC50) turned out to be 9.7 nM on His-BIR3 (241-356, XIAP) and 1.7 nM in assay [1].
As for `CN[C@@H](C)C(=O)N[C@H](C(=O)N[C@H]1C/C=C\CC[C@@H](C(=O)O)NC(=O)[C@H](Cc2ccc3ccccc3c2)NC(=O)[C@@H]2CN(CCN2C(=O)[C@@H](NC(=O)[C@H](C)NC)C(C)(C)C)C(=O)CNC(=O)CC[C@@H](C(=O)O)NC(=O)[C@H](Cc2ccc3ccccc3c2)NC1=O)C(C)(C)C` [Example 76], the IC50 was found to be 293 nM at His-BIR3 (241-356, XIAP) and 14.6 nM in assay [1].
On to `CN[C@@H](C)C(=O)N[C@H](C(=O)N[C@H]1C/C=C/CC[C@@H](C(=O)O)NC(=O)[C@H](Cc2ccc3ccccc3c2)NC(=O)[C@@H]2CN(CCN2C(=O)[C@@H](NC(=O)[C@H](C)NC)C(C)(C)C)C(=O)CNC(=O)CC[C@@H](C(=O)O)NC(=O)[C@H](Cc2ccc3ccccc3c2)NC1=O)C(C)(C)C` [Example 77], for which the IC50 came to 206 nM against His-BIR3 (241-356, XIAP) and 12.1 nM in assay [1].
Regarding `CN[C@@H](C)C(=O)N[C@H](C(=O)N[C@H]1C/C=C/COc2ccc(cc2)C[C@@H](C(=O)O)NC(=O)[C@H](Cc2ccc3ccccc3c2)NC(=O)[C@@H]2CN(CCN2C(=O)[C@@H](NC(=O)[C@H](C)NC)C(C)(C)C)C(=O)CNC(=O)CC[C@@H](C(=O)O)NC(=O)[C@H](Cc2ccc3ccccc3c2)NC1=O)C(C)(C)C` [Example 78], the IC50 is 82.4 nM on His-BIR3 (241-356, XIAP) and 4.7 nM in assay [1].
As for `CN[C@@H](C)C(=O)NC(C(=O)N1C[C@@H]2C[C@H]1C(=O)N[C@@H](Cc1ccc3ccccc3c1)C(=O)N[C@H](C(=O)O)Cc1ccc(cc1)OC/C=C/C(=O)N1CCN(C(=O)[C@@H](NC(=O)[C@H](C)NC)C(C)(C)C)[C@@H](C1)C(=O)N[C@@H](Cc1ccc3ccccc3c1)C(=O)N[C@H](C(=O)O)CCC(=O)N2)C(C)(C)C` (stereo partly drawn) [Example 79], the half-inhibitory concentration (IC50) against His-BIR3 (241-356, XIAP) worked out at 44.3 nM; in assay [1], 5.6 nM.
In the case of `CN[C@@H](C)C(=O)N[C@H](C(=O)N[C@H]1C/C=C/CC[C@@H](C(=O)O)NC(=O)[C@H](Cc2ccc3ccccc3c2)NC(=O)[C@@H]2CN(CCNC(=O)CC[C@@H](C(=O)O)NC(=O)[C@H](Cc3ccc4ccccc4c3)NC1=O)CCN2C(=O)[C@@H](NC(=O)[C@H](C)NC)C(C)(C)C)C(C)(C)C` [Example 80], the half-inhibitory concentration (IC50) at His-BIR3 (241-356, XIAP) amounted to 373 nM; in assay [1], 6.8 nM.
In the case of `CN[C@@H](C)C(=O)N[C@H](C(=O)N[C@H]1C/C=C/CC[C@@H](C(=O)O)NC(=O)[C@H](Cc2ccccc2)NC(=O)[C@@H]2CN(CCNC(=O)CC[C@@H](C(=O)O)NC(=O)[C@H](Cc3ccccc3)NC1=O)CCN2C(=O)[C@@H](NC(=O)[C@H](C)NC)C(C)C)C(C)C` [Example 81], the half-maximal inhibitory concentration (IC50) amounted to 26 nM against His-BIR3 (241-356, XIAP) and 1.1 nM in assay [1].
Consider `CC(C)[C@H](NC(=O)[C@H](C)N(C)C(=O)OC(C)(C)C)C(=O)N[C@H]1C/C=C/CC[C@@H](C(=O)O)NC(=O)[C@H](Cc2ccccc2)NC(=O)[C@@H]2CN(CCNC(=O)CC[C@@H](C(=O)OC(C)(C)C)NC(=O)[C@H](Cc3ccccc3)NC1=O)CCN2C(=O)[C@@H](NC(=O)[C@H](C)N(C)C(=O)OC(C)(C)C)C(C)C` [Example 82], for which the IC50 against His-BIR3 (241-356, XIAP) is 1100 nM; in assay [1] it was 2090 nM.
For the molecule `CN[C@@H](C)C(=O)N[C@H](C(=O)N1C[C@@H]2C[C@H]1C(=O)N[C@@H](Cc1ccc3ccccc3c1)C(=O)NC(C(=O)O)Cc1ccc(cc1)OC/C=C/CO[C@H]1C[C@@H](C(=O)N[C@@H](Cc3ccc4ccccc4c3)C(=O)N[C@H](C(=O)O)Cc3ccc(cc3)O2)N(C(=O)[C@@H](NC(=O)[C@H](C)NC)C(C)(C)C)C1)C(C)(C)C` (stereo partly drawn) [Example 84], the half-inhibitory concentration (IC50) amounted to 2.9 nM on His-BIR3 (241-356, XIAP) and 1.3 nM in assay [1].
As to `CN[C@@H](C)C(=O)N[C@H](C(=O)N1C[C@@H]2C[C@H]1C(=O)N[C@@H](Cc1ccc3ccccc3c1)C(=O)N[C@H](C(=O)O)Cc1ccc(cc1)C(=O)N[C@H]1C[C@@H](C(=O)N[C@@H](Cc3ccc4ccccc4c3)C(=O)N[C@H](C(=O)O)Cc3ccc(cc3)C(=O)N2)N(C(=O)[C@@H](NC(=O)[C@H](C)NC)C(C)(C)C)C1)C(C)(C)C` [Example 85], the IC50 was determined as 16.8 nM on His-BIR3 (241-356, XIAP) and 2.5 nM in assay [1].
`CN[C@@H](C)C(=O)N[C@H](C(=O)N1C[C@@H]2C[C@H]1C(=O)N[C@@H](Cc1ccc3ccccc3c1)C(=O)N[C@H](C(=O)O)Cc1ccc(cc1)OC/C=C/C[C@H]1C[C@@H](C(=O)N[C@@H](Cc3ccc4ccccc4c3)C(=O)N[C@H](C(=O)NS(=O)(=O)C3CC3)Cc3ccc(cc3)OCc3cn2nn3)N(C(=O)[C@@H](NC(=O)[C@H](C)NC)C(C)(C)C)C1)C(C)(C)C` [Example 86]: the IC50 against His-BIR3 (241-356, XIAP) was found to be 1.7 nM; in assay [1], 1.1 nM.
In the same order, the values of `CN[C@@H](C)C(=O)N[C@H](C(=O)N1C[C@@H]2C[C@H]1C(=O)N[C@@H](Cc1ccc3ccccc3c1)C(=O)N[C@H](C(=O)O)Cc1ccc(cc1)OCCCC[C@H]1C[C@@H](C(=O)N[C@@H](Cc3ccc4ccccc4c3)C(=O)N[C@H](C(=O)NS(=O)(=O)C3CC3)Cc3ccc(cc3)OCc3cn2nn3)N(C(=O)[C@@H](NC(=O)[C@H](C)NC)C(C)(C)C)C1)C(C)(C)C` [Example 87] are 2.4 nM and 1.3 nM.
On to `CN[C@@H](C)C(=O)N[C@H](C(=O)N1C[C@H]2C/C=C/COc3ccc(cc3)C[C@@H](C(=O)NS(=O)(=O)C3CC3)NC(=O)[C@H](Cc3ccc4ccccc4c3)NC(=O)[C@@H]3C[C@H](C/C=C/COc4ccc(cc4)C[C@@H](C(=O)O)NC(=O)[C@H](Cc4ccc5ccccc5c4)NC(=O)[C@@H]1C2)CN3C(=O)[C@@H](NC(=O)[C@H](C)NC)C(C)(C)C)C(C)(C)C` [Example 88], for which the IC50 on His-BIR3 (241-356, XIAP) stood at 3.9 nM; in assay [1], 1.7 nM.
Consider `CN[C@@H](C)C(=O)N[C@H](C(=O)N1C[C@H]2CCCCOc3ccc(cc3)C[C@@H](C(=O)NS(=O)(=O)C3CC3)NC(=O)[C@H](Cc3ccc4ccccc4c3)NC(=O)[C@@H]3C[C@H](CCCCOc4ccc(cc4)C[C@@H](C(=O)O)NC(=O)[C@H](Cc4ccc5ccccc5c4)NC(=O)[C@@H]1C2)CN3C(=O)[C@@H](NC(=O)[C@H](C)NC)C(C)(C)C)C(C)(C)C` [Example 89], for which the IC50 on His-BIR3 (241-356, XIAP) came out at 5.9 nM; in assay [1], 3 nM.
In the same order, the values of `CN[C@@H](C)C(=O)N[C@H](C(=O)N1C[C@H]2CCCCOc3ccc(cc3)C[C@@H](c3nnn[nH]3)NC(=O)[C@H](Cc3ccc4ccccc4c3)NC(=O)[C@@H]3C[C@@H](CN3C(=O)[C@@H](NC(=O)[C@H](C)NC)C(C)(C)C)n3cc(nn3)COc3ccc(cc3)C[C@@H](C(=O)O)NC(=O)[C@H](Cc3ccc4ccccc4c3)NC(=O)[C@@H]1C2)C(C)(C)C` [Example 90] are 1.7 nM and 0.5 nM.
`CN[C@@H](C)C(=O)NC(C(=O)N1C[C@H]2C/C=C/COc3ccc(cc3)C[C@@H](c3n[nH]c(=O)o3)NC(=O)C(Cc3ccc4ccccc4c3)NC(=O)[C@@H]3C[C@@H](CN3C(=O)[C@@H](NC(=O)[C@H](C)NC)C(C)(C)C)n3cc(nn3)COc3ccc(cc3)C[C@@H](C(=O)O)NC(=O)[C@H](Cc3ccc4ccccc4c3)NC(=O)[C@@H]1C2)C(C)(C)C` (stereo partly drawn) [Example 91]: the half-inhibitory concentration (IC50) against His-BIR3 (241-356, XIAP) turned out to be 2 nM; in assay [1], 0.4 nM.
As to `CN[C@@H](C)C(=O)NC(C(=O)N1C[C@H]2CCCCOc3ccc(cc3)C[C@@H](c3n[nH]c(=O)o3)NC(=O)C(Cc3ccc4ccccc4c3)NC(=O)[C@@H]3C[C@@H](CN3C(=O)[C@@H](NC(=O)[C@H](C)NC)C(C)(C)C)n3cc(nn3)COc3ccc(cc3)C[C@@H](C(=O)O)NC(=O)[C@H](Cc3ccc4ccccc4c3)NC(=O)[C@@H]1C2)C(C)(C)C` (stereo partly drawn) [Example 92], the concentration for half-maximal inhibition (IC50) at His-BIR3 (241-356, XIAP) is 2.9 nM; in assay [1], 0.9 nM.
For the molecule `CN[C@@H](C)C(=O)N[C@H](C(=O)N1C[C@@H]2C[C@H]1C(=O)NC(Cc1ccc3ccccc3c1)C(=O)N[C@H](c1nnn[nH]1)Cc1ccc(cc1)OC/C=C/C[C@H]1C[C@@H](C(=O)N[C@@H](Cc3ccc4ccccc4c3)C(=O)N[C@H](C(=O)O)Cc3ccc(cc3)OCc3cn2nn3)N(C(=O)[C@@H](NC(=O)[C@H](C)NC)C(C)(C)C)C1)C(C)(C)C` (stereo partly drawn) [Example 93], the concentration for half-maximal inhibition (IC50) at His-BIR3 (241-356, XIAP) worked out at 0.8 nM; in assay [1] it was 0.4 nM.
Consider `CN[C@@H](C)C(=O)N[C@H](C(=O)N1C[C@@H]2C[C@H]1C(=O)NC(Cc1ccc3ccccc3c1)C(=O)N[C@H](C(=O)NS(=O)(=O)CCCO)Cc1ccc(cc1)OC/C=C/C[C@H]1C[C@@H](C(=O)N[C@@H](Cc3ccc4ccccc4c3)C(=O)N[C@H](C(=O)O)Cc3ccc(cc3)OCc3cn2nn3)N(C(=O)[C@@H](NC(=O)[C@H](C)NC)C(C)(C)C)C1)C(C)(C)C` (stereo partly drawn) [Example 94], for which the half-maximal inhibitory concentration (IC50) against His-BIR3 (241-356, XIAP) is 2.1 nM; in assay [1], 0.6 nM.
For the molecule `CN[C@@H](C)C(=O)N[C@H](C(=O)N1C[C@@H]2C[C@H]1C(=O)NC(Cc1ccc3ccccc3c1)C(=O)N[C@H](c1n[nH]c(=O)n1Cc1ccc(OC)cc1)Cc1ccc(cc1)OC/C=C/C[C@H]1C[C@@H](C(=O)N[C@@H](Cc3ccc4ccccc4c3)C(=O)N[C@H](C(=O)O)Cc3ccc(cc3)OCc3cn2nn3)N(C(=O)[C@@H](NC(=O)[C@H](C)NC)C(C)(C)C)C1)C(C)(C)C` (stereo partly drawn) [Example 95], the half-inhibitory concentration (IC50) against His-BIR3 (241-356, XIAP) was determined as 3.1 nM; in assay [1], 1.8 nM.
Regarding `CN[C@@H](C)C(=O)N[C@H](C(=O)N1C[C@@H]2C[C@H]1C(=O)NC(Cc1ccc3ccccc3c1)C(=O)N[C@H](C(=O)O)CCCCOC/C=C/C[C@H]1C[C@@H](C(=O)N[C@@H](Cc3ccc4ccccc4c3)C(=O)N[C@H](C(=O)O)Cc3ccc(cc3)OCc3cn2nn3)N(C(=O)[C@@H](NC(=O)[C@H](C)NC)C(C)(C)C)C1)C(C)(C)C` (stereo partly drawn) [Example 96], the half-maximal inhibitory concentration (IC50) stood at 7.1 nM against His-BIR3 (241-356, XIAP) and 1 nM in assay [1].
